Assay results as given in ChEMBL document CHEMBL1201862, “PubChem BioAssay data set” (2004).
Calls of active or inactive are those of the source.

Columns and labels:
[1] = molecular target: T1, Heat shock factor protein 1 (Mus musculus, UniProt P38532); experiment: inhibition of MG132-induced HSE-luciferase signal, confirmation, cell-based, NIH3T3, luminescence, dose retest (AID 2382); format: functional;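 further: NIH3T3 fibroblasts with HSF1-driven luciferase reporter stressed by proteasome inhibitor MG132; luminescence from HSF1-driven luciferase expression after 8 hours of MG132 stress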
T1 sequence (P38532 whole entry): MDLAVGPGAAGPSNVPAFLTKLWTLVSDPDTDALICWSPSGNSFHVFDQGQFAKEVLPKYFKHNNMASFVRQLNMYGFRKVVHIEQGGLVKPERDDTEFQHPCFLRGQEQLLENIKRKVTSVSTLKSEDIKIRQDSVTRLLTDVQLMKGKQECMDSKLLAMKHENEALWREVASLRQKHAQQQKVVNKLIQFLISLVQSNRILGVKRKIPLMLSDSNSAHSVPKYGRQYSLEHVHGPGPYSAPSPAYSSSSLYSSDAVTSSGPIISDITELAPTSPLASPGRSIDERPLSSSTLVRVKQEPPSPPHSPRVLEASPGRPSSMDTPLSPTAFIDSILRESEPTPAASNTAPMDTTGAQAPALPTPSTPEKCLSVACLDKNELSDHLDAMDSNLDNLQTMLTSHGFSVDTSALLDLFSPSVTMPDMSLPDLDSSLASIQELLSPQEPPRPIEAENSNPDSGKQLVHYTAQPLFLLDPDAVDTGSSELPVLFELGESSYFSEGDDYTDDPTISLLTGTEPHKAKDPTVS

[2] = molecular target: T2, Corticotropin-releasing factor receptor 2/Corticotropin-releasing factor-binding protein (Homo sapiens, UniProt P24387+Q13324); experiment: Dose Response confirmation of uHTS hits for small molecule antagonists of the CRF-binding protein and CRF-R2 receptor complex.; format: functional; conditions: read-out: IC50_Mean
T2 sequence (Q13324 whole entry): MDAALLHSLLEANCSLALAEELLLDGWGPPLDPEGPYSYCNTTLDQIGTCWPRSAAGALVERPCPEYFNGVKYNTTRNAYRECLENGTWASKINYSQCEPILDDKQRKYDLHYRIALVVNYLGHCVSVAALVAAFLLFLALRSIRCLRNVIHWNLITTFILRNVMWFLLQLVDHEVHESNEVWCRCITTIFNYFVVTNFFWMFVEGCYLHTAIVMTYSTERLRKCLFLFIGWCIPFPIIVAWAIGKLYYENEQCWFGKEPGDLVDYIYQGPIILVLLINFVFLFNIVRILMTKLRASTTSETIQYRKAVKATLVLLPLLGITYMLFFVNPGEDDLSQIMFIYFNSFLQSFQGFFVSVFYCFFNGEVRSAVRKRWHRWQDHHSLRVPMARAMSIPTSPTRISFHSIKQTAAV
T2 sequence (P24387 whole entry): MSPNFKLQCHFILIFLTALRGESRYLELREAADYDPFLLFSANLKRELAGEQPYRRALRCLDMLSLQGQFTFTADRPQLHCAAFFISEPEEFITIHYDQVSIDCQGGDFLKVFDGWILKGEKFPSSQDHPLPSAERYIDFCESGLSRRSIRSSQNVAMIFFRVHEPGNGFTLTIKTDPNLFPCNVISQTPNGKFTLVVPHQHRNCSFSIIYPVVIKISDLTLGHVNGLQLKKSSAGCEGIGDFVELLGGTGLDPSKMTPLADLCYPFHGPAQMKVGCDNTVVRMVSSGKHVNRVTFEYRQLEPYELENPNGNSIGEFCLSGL

[3] = molecular target: T2, Corticotropin-releasing factor receptor 2/Corticotropin-releasing factor-binding protein; experiment: activators of CRF receptor 2 with binding protein – uHTS hits, confirmation (AID 602473); format: functional; conditions: read-out: EC50_Mean
[4] = molecular target: T1, Heat shock factor protein 1; experiment: HSF1 potentiators in luciferase reporter cells, confirmation, cell-based, NIH3T3, luminescence, dose retest (AID 435004); format: functional;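 further: stress induced by proteasome inhibitor MG132 added 30 min after compound; luciferase reporter driven by HSF1 response element in NIH3T3 cells; actives raise luminescence as potentiators of the MG132 stress response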
[5] = molecular target: T3, Rac GTPase-activating protein 1 (Homo sapiens, UniProt Q9H0H5); experiment: MgcRacGAP GTPase-activating activity inhibitors, confirmation, biochemical, ADP Hunter fluorescence, primary and confirmatory (AID 624330); format: functional
T3 sequence (Q9H0H5 whole entry): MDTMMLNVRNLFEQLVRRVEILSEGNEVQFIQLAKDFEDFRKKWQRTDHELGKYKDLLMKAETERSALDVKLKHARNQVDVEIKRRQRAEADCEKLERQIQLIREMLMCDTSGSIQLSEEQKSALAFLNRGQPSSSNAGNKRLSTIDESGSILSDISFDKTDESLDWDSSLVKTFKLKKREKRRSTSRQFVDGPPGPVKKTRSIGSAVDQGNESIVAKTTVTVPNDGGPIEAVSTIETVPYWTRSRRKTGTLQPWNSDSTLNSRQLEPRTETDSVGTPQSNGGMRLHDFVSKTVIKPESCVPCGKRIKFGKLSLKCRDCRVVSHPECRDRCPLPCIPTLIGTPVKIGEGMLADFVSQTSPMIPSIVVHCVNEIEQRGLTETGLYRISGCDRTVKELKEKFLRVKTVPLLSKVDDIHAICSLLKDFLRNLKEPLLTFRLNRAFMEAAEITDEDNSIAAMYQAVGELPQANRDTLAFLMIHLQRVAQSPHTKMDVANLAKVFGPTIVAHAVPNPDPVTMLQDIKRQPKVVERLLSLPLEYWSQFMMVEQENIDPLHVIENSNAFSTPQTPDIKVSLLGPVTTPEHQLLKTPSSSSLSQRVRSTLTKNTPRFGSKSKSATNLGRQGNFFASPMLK

Cytochrome P450 2C9 = Cytochrome P450 2C9 (Homo sapiens, UniProt P11712)
Cytochrome P450 2C9, sequence (P11712 whole entry): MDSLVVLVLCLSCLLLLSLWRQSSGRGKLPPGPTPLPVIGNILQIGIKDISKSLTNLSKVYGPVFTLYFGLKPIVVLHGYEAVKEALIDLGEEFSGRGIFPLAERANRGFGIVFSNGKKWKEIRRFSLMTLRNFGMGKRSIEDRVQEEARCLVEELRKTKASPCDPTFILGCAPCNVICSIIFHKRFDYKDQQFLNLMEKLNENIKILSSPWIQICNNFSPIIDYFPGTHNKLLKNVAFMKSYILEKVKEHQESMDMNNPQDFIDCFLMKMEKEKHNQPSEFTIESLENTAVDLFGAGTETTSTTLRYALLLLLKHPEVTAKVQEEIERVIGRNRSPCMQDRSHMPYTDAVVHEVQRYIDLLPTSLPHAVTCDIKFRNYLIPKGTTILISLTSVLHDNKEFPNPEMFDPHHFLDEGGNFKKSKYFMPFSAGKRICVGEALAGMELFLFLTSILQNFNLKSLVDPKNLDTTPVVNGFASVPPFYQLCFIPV

Cytochrome P450 3A4 = Cytochrome P450 3A4 (Homo sapiens, UniProt P08684);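 further: CYP3A4 tested as one member of a cytochrome P450 panel screen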
Cytochrome P450 3A4, sequence (P08684 whole entry): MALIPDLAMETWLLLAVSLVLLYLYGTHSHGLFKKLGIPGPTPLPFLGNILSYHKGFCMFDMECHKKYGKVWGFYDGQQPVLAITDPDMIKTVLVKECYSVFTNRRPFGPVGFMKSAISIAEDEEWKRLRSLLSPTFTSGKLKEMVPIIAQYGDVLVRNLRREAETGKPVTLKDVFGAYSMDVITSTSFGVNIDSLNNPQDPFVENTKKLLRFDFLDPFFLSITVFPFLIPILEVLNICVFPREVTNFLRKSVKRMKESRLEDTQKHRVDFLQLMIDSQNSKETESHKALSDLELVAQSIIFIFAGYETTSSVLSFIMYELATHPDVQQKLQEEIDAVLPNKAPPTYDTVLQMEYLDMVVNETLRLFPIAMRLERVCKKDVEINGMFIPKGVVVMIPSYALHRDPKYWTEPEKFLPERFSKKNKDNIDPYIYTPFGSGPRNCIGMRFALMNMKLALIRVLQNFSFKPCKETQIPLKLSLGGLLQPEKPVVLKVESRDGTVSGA

[6] = Luminescence Cell-Based Dose Response HTS to Identify Activators of Luciferase Translation or Activity in H4 […] Cells. [Related pubchem assays: 1829 (Project Summary), 1814 (Primary HTS)]; format: functional

CC(C)(C)c1ccc(/C=C(\C#N)C(=O)Nc2ccccn2)cc1
EC50 [1]: > 195 µM (not active)

COc1ccc(-c2noc(C(=O)NCc3ccc(F)cc3)n2)cc1OC
IC50 [2]: > 47.1 µM (inactive) | EC50 [3]: > 53 µM (inactive)

Cc1ccc2[nH]c3c(c2c1)CCN(C)C3
EC50 [1]: > 195 µM (not active)

CCOC(=O)c1cn2nc(Oc3cccc(F)c3)ccc2n1
IC50 [2]: > 47.1 µM (inactive) | EC50 [3]: > 53 µM (inactive)

Cc1ccc(/C=C2\Oc3cc(OC(=O)N4CCOCC4)ccc3C2=O)cc1
EC50 [4]: > 260 µM (inactive)

CCOC(=O)C1CCCN(CC(=O)Nc2c(C(=O)OC)[nH]c3ccccc23)C1 (stereo unspecified)
EC50 [4]: > 260 µM (inactive)

COc1cc(/C=C/C(=O)OCC(=O)N2CCC(Cc3ccccc3)CC2)ccc1O
IC50 [5]: 47.7 µM (active)

CC1Cc2ccccc2N1CC(=O)NC(=O)NCc1ccccc1 (stereo unspecified)
EC50 [1]: > 195 µM (not active)

COc1ccc(OC2C(=O)N(c3cc(C)ccc3C)C2c2ccc(OC)c(OC)c2)cc1 (stereo unspecified)
IC50 [2]: > 47.1 µM (inactive) | EC50 [3]: > 53 µM (inactive)

O=C(CN1CCN(C2CCCCC2)CC1)Nc1ccccc1-c1ccccc1
IC50 [5]: 78.1 µM (active)

OC(CNCc1ccc(F)cc1)(c1ccc(F)cc1)c1ccc(F)cc1
EC50 [4]: > 260 µM (inactive) | AC50 (Cytochrome P450 2C9): 12.6 µM (inconclusive)

CCCn1c(C)nc2c(c1=O)c1nc3ccccc3nc1n2CCC1=CCCCC1
AC50 (Cytochrome P450 3A4): 3.16 µM (inconclusive) | EC50 [4]: > 260 µM (inactive)

CCOc1ccc(OCCSc2nc(N)cc(=O)[nH]2)cc1
IC50 [2]: > 47.1 µM (inactive) | EC50 [3]: > 53 µM (inactive)

CCC(C)[C@H](NC(=O)NCc1cccc(OC)c1)C(=O)O (stereo partly specified)
EC50 [1]: > 195 µM (not active)

COc1ccc(C)cc1NC(=O)C(=O)NNC(=O)COc1ccc(Cl)cc1
EC50 [1]: 14.8 µM (active)

CCN1CCN(CCOc2ccccc2OCc2ccccc2)CC1
IC50 [5]: 94.5 µM (active)

CCOC(=O)c1c(S(=O)(=O)N2CCCCC2C)c(C)n(C)c1C (stereo unspecified)
EC50 [1]: > 195 µM (not active)

COc1ccc(OC)c(CN2CCN(S(=O)(=O)c3ccc(NC(C)=O)cc3)CC2)c1
IC50 [2]: > 47.1 µM (inactive) | EC50 [3]: > 53 µM (inactive)

COc1ccc2nnc(-c3ccc(C(F)(F)F)cc3)n2n1
EC50 [1]: > 195 µM (not active)

COc1ccc(Br)cc1CN1CCC(N2CCCC2)CC1
IC50 [5]: 59.6 µM (active)

Cc1cc(O)nc(SCc2nc3ccccc3c(=O)n2-c2ccccc2C)n1
EC50 [4]: > 260 µM (inactive)

Cc1ccc(S(=O)(=O)N2CCN(C(=O)COc3ccc(C)nc3[N+](=O)[O-])CC2)c(C)c1
IC50 [2]: > 47.1 µM (inactive) | EC50 [3]: > 53 µM (inactive)

CCC(C(=O)NCCN1CCOCC1)n1c2ccccc2c2nc(=O)cc(C)n21 (stereo unspecified)
IC50 [2]: > 47.1 µM (inactive) | EC50 [3]: > 53 µM (inactive)

COc1cccc(C(=O)Nc2cc(C(=O)NCc3ccc(C)cc3)ccc2N2CCC3(CC2)CC(c2cccc(Br)c2)=NO3)c1
IC50 [2]: < 0.368 µM (active) | EC50 [3]: > 53 µM (inactive)

CCCC[C@@H]1C[C@H]1[C@@H](NC(=O)c1ccco1)c1ccc(Cl)cc1
EC50 [1]: > 195 µM (not active)

O=C(COc1ccc(Cl)cc1)N1CCCC1
EC50 [1]: > 195 µM (not active)

CCC(=O)N1CCc2cc(S(=O)(=O)NCCC(=O)Nc3ccccc3C)ccc21
EC50 [1]: > 195 µM (not active)

O=C(CSc1nnnn1CCCO)Nc1ccc2c(c1)OCO2
EC50 [1]: > 195 µM (not active)

Brc1ccc(-c2noc(CCc3ccccc3)n2)o1
IC50 [2]: > 47.1 µM (inactive) | EC50 [3]: > 53 µM (inactive)

CCOC(=O)c1c(CN2CCC(C)CC2)n(C)c2cc(Br)c(OC)cc12
EC50 [4]: > 260 µM (inactive)

COc1ccc(C(=O)/C=C2/C(=O)Nc3ccccc32)cc1OC
EC50 [4]: > 260 µM (inactive)

Cc1ccccc1-n1c(C)nnc1SCc1nc2ccccc2s1
EC50 [6]: 33.1 µM (active)

Cc1ccc(C(C)C)c(OCCCCN2CCNCC2)c1
IC50 [5]: 87.9 µM (active)

C=CCNC(=O)c1c(C(F)(F)F)nn(C)c1Cl
EC50 [1]: > 195 µM (not active)

NC(=NOC(=O)COc1ccc(Br)cc1)c1ccncc1
IC50 [2]: > 47.1 µM (inactive) | EC50 [3]: > 53 µM (inactive)

CN(C)/C=C/C(=O)c1ccc(S(=O)(=O)c2ccccc2)cc1
EC50 [1]: > 195 µM (not active)

O=C(NCCN1CCCCC1)Nc1ccccc1Cl
EC50 [1]: > 195 µM (not active)

O=C(CCCc1cccs1)Nc1ccc2c(c1)OCO2
IC50 [2]: > 47.1 µM (inactive) | EC50 [3]: > 53 µM (inactive)

CCC(C)N(C(=O)C(F)(F)F)C(C(=O)NC1CCCCC1)c1ccncc1 (stereo unspecified)
EC50 [1]: > 195 µM (not active)

CC(=O)Nc1c(C(=O)Nc2ccc3c(c2)OCO3)oc2ccccc12
EC50 [1]: > 195 µM (not active)

COc1ccc(C)cc1NC(=O)C(NCC(O)c1ccccc1)c1ccccc1 (stereo unspecified)
IC50 [5]: 96.8 µM (active)

Cc1onc(-c2ccccc2)c1C(=O)OCc1nnc(-c2ccccc2)o1
EC50 [4]: > 260 µM (inactive)

CCN(CC)CCCN1C(=O)c2oc3ccccc3c(=O)c2C1c1cccc(OC)c1OC (stereo unspecified)
EC50 [4]: > 260 µM (inactive)

Cc1nn(C(=O)c2c(-c3ccccc3)noc2C)c(C)c1N=Nc1cc(C(F)(F)F)cc(C(F)(F)F)c1
IC50 [2]: > 47.1 µM (inactive) | EC50 [3]: > 53 µM (inactive)

O=C(Nc1ccccn1)C1CCN(S(=O)(=O)c2ccc3ccccc3c2)CC1
IC50 [2]: > 47.1 µM (inactive) | EC50 [3]: > 53 µM (inactive)

COC(=O)CNC(c1ccccc1)c1cc(Br)ccc1N (stereo unspecified)
EC50 [4]: > 260 µM (inactive)

Cc1c(C(=O)N2CC(C(=O)N3CCCCC3)Oc3ccccc32)oc2ccccc12 (stereo unspecified)
IC50 [2]: > 47.1 µM (inactive) | EC50 [3]: > 53 µM (inactive)

CCOc1ccccc1N1CCN(C(=O)C2CSC3(C)CCC(=O)N23)CC1 (stereo unspecified)
IC50 [2]: > 47.1 µM (inactive) | EC50 [3]: > 53 µM (inactive)

O=C(N/N=C/CCc1ccccc1)c1ccccc1
EC50 [4]: > 260 µM (inactive)

Cc1[nH]n(-c2ccccc2)c(=O)c1/C=N/CCc1ccccc1
EC50 [4]: 85.4 µM (active)

COc1cc(/C=N\NC(=O)CNC(=O)C(c2ccccc2)c2ccccc2)ccc1O
IC50 [5]: 54.6 µM (active)

COc1cc(/C=N/NC(=O)/C(=C\c2ccc3c(c2)OCO3)NC(=O)c2ccccc2)ccc1O
IC50 [5]: 79.4 µM (active)

COc1cc(/C=N/NC(=O)c2ccoc2C)ccc1O
IC50 [5]: 27.3 µM (active)

COc1cc([C@H]2OC[C@H]3[C@@H]2CO[C@H]3c2ccc(O)c(OC)c2)ccc1O [PINORESINOL]
IC50 [5]: 171 µM (active)
